We go through 3 compounds from ChEMBL document CHEMBL5649166, “RIP3 induces apoptosis independent of pronecrotic kinase activity” (Mol Cell, 2014).

The target of test [1] is Vascular endothelial growth factor receptor 2 (Homo sapiens) (UniProt P35968). Nature of the test: Inhibition of human KDR/VEGFR2 using poly[Glu:Tyr] (4:1) as substrate at 1 uM in presence of 32P-ATP by Hotspot assay relative to control; values are per cent of control.
Test [2] concerns the target T1, Mitogen-activated protein kinase kinase kinase 3 (Homo sapiens) (UniProt Q99759).
T1 sequence (whole entry): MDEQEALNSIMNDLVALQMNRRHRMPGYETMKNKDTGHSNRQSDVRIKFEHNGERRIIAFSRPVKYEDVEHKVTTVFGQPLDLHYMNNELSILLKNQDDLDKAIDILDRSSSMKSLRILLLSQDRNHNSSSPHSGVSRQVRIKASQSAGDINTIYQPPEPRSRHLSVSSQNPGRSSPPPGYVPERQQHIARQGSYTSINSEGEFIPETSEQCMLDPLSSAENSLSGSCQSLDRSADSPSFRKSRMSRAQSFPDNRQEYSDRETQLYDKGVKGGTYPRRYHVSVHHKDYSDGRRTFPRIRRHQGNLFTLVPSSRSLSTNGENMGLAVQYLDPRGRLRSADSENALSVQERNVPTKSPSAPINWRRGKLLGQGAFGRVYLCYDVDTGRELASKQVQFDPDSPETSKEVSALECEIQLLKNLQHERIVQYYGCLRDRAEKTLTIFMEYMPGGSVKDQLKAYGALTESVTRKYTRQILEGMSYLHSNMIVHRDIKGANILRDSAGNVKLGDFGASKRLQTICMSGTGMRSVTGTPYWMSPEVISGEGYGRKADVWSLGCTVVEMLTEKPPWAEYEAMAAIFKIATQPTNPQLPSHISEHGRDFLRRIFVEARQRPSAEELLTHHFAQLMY
As to the kind of experiment: Inhibition of human MEKK3 using myelin basic protein as substrate at 1 uM in presence of 32P-ATP by Hotspot assay relative to control; values are per cent of control.

For test [3], the target named is Death-associated protein kinase 2 (Homo sapiens) (UniProt Q9UIK4). As to the kind of experiment: Inhibition of human DAPK2 using KKLNRTLSFAEPG as substrate at 1 uM in presence of 32P-ATP by Hotspot assay relative to control; values are per cent of control.
Test [4] addresses Casein kinase I isoform epsilon (Homo sapiens) (UniProt P49674). As to the kind of experiment: Inhibition of human CK1epsilon using KRRRAL[pS]VASLPGL as substrate at 1 uM in presence of 32P-ATP by Hotspot assay relative to control; values are per cent of control.
Test [5] deals with T2, Interleukin-1 receptor-associated kinase 4 (Homo sapiens) (UniProt Q9NWZ3).
T2 sequence (whole entry): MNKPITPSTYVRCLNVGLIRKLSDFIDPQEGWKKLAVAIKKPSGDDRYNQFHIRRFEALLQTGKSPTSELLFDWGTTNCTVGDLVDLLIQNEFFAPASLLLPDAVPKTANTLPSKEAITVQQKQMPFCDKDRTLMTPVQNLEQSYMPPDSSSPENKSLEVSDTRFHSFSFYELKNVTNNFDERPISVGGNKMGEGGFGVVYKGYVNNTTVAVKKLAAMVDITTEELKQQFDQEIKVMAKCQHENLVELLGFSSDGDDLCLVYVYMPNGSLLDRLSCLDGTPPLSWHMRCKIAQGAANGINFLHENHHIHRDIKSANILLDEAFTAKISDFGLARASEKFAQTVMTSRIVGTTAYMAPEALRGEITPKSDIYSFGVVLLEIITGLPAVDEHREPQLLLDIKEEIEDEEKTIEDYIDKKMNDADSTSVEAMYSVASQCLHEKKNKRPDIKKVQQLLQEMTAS
Nature of the test: Inhibition of human IRAK4 using myelin basic protein as substrate at 1 uM in presence of 32P-ATP by Hotspot assay relative to control; values are per cent of control.

Test [6] deals with T3, G protein-coupled receptor kinase 3 (Homo sapiens) (UniProt P35626).
T3 sequence (whole entry): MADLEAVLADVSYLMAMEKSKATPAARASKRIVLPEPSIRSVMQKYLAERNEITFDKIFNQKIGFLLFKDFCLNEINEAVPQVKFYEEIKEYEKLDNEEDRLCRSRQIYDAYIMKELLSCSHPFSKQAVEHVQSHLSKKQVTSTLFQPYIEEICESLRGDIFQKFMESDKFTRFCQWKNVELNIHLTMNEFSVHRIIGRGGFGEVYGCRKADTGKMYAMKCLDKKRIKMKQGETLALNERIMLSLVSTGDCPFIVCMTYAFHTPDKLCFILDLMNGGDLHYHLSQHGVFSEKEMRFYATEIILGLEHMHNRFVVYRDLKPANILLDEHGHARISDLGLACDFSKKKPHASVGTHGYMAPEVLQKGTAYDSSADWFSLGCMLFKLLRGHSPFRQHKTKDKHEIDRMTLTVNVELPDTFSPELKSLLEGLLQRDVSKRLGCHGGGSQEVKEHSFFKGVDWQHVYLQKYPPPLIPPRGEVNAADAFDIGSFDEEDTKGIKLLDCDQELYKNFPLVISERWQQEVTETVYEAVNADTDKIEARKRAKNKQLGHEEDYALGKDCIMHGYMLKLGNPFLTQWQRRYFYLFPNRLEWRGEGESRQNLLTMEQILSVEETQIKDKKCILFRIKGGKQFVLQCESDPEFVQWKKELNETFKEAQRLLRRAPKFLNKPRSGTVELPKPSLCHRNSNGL
Nature of the test: Inhibition of human GRK3 using casein as substrate at 1 uM in presence of 32P-ATP by Hotspot assay relative to control; values are per cent of control.

Casein kinase I isoform epsilon (Homo sapiens), sequence (P49674 whole entry, looked up, canonical isoform): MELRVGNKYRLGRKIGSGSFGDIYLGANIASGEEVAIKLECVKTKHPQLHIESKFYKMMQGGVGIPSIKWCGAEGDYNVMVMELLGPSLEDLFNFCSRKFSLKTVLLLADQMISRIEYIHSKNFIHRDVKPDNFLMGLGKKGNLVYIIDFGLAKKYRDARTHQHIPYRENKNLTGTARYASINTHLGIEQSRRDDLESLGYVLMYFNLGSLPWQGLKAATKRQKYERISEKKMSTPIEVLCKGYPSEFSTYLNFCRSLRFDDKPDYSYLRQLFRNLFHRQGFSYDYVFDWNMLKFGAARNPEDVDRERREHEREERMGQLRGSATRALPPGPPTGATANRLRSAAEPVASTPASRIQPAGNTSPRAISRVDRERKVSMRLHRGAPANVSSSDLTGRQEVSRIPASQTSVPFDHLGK
Death-associated protein kinase 2 (Homo sapiens), sequence (Q9UIK4 whole entry, looked up, canonical isoform): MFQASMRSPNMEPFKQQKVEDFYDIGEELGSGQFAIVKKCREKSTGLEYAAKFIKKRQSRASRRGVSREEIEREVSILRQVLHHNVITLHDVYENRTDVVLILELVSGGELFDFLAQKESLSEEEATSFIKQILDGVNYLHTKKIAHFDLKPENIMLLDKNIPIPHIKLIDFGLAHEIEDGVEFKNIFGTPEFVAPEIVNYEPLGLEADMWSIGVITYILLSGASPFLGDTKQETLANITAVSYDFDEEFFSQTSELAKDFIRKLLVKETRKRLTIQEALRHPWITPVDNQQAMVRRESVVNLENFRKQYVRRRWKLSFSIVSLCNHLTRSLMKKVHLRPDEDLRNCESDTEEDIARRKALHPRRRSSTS
Vascular endothelial growth factor receptor 2 (Homo sapiens), sequence (P35968 whole entry): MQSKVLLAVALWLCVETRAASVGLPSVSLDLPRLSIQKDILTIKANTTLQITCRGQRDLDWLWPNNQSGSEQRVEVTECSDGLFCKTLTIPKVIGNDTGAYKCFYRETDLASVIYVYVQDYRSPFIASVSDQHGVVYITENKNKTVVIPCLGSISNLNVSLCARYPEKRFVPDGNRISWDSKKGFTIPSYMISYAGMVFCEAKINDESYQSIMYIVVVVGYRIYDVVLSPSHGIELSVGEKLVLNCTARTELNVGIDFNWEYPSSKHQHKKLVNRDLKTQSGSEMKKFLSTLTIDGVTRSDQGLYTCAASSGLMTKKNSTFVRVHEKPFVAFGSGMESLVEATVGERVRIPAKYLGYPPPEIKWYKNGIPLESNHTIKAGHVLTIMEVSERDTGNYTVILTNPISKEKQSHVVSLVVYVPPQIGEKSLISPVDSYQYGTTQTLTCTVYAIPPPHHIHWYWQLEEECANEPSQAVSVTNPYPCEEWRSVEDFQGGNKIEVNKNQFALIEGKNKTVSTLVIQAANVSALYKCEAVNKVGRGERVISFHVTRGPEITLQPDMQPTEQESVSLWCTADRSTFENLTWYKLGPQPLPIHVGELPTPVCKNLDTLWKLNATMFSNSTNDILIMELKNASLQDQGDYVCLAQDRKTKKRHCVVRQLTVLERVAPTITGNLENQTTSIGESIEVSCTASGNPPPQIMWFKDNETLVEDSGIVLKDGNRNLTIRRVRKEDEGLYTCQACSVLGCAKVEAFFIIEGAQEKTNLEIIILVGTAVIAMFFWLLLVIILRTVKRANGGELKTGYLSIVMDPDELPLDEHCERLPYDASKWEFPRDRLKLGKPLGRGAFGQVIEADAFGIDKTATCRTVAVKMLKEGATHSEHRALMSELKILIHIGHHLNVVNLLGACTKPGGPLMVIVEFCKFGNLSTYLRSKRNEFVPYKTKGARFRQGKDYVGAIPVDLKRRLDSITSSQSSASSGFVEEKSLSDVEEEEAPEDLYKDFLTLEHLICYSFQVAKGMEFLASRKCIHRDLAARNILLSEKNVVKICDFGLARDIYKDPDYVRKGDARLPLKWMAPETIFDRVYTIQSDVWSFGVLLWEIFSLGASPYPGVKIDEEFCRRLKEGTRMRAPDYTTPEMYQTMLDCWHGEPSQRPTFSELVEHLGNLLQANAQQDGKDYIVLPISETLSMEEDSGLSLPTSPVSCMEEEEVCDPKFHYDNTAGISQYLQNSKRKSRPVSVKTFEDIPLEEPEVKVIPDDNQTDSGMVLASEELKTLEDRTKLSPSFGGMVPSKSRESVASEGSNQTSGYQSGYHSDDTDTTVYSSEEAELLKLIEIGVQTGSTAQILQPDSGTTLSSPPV

Consider `CNC(=O)c1ccc2c(c1)ncn2-c1ccc(CC(=O)OC(C)(C)C)cc1`, for which the residual activity in test [1] worked out at 78.7%; in test [2], 96%; in test [3] it was 96.3%; in test [4] it was 94.2%; in test [5], 102%; in test [6], 108%.

For `Cc1cc(-c2cnc(N)c3c(-c4ccc5scnc5c4)csc23)n(C)n1`, the residual activity was 59.8% in test [1]; 95% in test [2]; 82.4% in test [3]; 73% in test [4]; 99.7% in test [5]; 80.9% in test [6].

As to `CC(C)S(=O)(=O)c1ccc2nccc(Nc3ccc4scnc4c3)c2c1`, the residual activity in test [1] is 17.4%; in test [2], 92.3%; in test [3], 104%; in test [4] it was 106%; in test [5], 97.5%; in test [6], 99.5%.
